Biological target: T1, cloned human CRTH2 receptor (Homo sapiens, UniProt Q9Y5Y4)
T1 construct: purchased Biosignal; host or cells: HEK-293 cells stably expressing human CRTH2 and G-alpha-16 (membranes)
T1 sequence (Q9Y5Y4 1-395): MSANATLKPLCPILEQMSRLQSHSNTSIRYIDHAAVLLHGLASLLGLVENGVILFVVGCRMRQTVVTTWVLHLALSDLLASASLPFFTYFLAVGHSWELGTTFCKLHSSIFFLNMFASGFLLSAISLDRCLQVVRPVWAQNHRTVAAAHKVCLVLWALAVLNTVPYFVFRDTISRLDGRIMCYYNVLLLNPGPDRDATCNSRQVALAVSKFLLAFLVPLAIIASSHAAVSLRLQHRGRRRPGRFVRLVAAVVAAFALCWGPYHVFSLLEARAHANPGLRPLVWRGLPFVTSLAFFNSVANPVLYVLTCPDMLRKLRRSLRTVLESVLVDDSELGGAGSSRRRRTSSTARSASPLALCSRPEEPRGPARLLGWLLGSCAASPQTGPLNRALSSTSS
Assay: Radioligand membrane binding assay: inhibition of [3H] PGD2 binding to CRTH2 (Scintillation Proximity Assay)
Details: inhibition of [3H] PGD2 binding to membranes of HEK-293 cells stably expressing human CRTH2; SPA; 10 point curve from 10 μM; room temperature, approximately 2 hours
Protocol: This radioligand membrane binding assay evaluates the ability of compounds to inhibit [^3H] Prostaglandin D2 (PGD2) binding to the cloned human CRTH2 receptor stably expressed in HEK-293 cells (expressing human CRTh2 receptor and α subunit or the heteronimeric G protein 16 were prepared by Biosignal Company) using Scintillation Proximity Assay.
A binding buffer containing 50 mM Tris-HCl (pH 7.5), 5 mM MgCl2 and 1 mM EDTA was prepared immediately prior to performing the assay. A bead/membrane solution at twice the final assay concentration comprising membranes (membranes bought from Biosignal) from the HEK-293 cells cloned to express CRTH2 receptor bound to and [3H] PGD2 at twotimes the final assay concentration were prepared and stored on ice before adding to wells. Cold PGD2 at twenty times the final assay concentration was prepared and stored on ice before adding to wells defining non-specific binding (NSB) corning plates #3653 were used for this assay.
10 mM stock concentrations of compounds in 100% DMSO were prepared and stored at room temperature. A 10 point concentration response curve was then constructed for each compound, starting at 10 μM (final assay concentration). The compounds were prepared at 40 times final assay concentrations with nine consequent-3-fold dilutions.
0.1 μl of each concentration of compound were added to the appropriate well of the 384 plate and 2 μl of cold PGD2 was added into the wells defining NSB. 20 μl of [^3H] PGD2 and then 20 μl of 2× of bead/membrane solution were then added to each well.
The plates were allowed to incubate at room temperature for approximately 2 hours and then counted on Packard Topcount using SPA tritium protocol for 1 minute/well.
The percent inhibition of PGD2 binding (PGD2 used at the KD value or lower) to the HEK-293 cell membranes was determined, the assay was always run as duplicate for n=1 for a total of n=2.

Row | Structure (SMILES) | Ki
1 | COc1cccc(C(=O)N2c3ccccc3[C@H](N(C(=O)c3ccc(Cl)cc3)c3ccccc3)C[C@@H]2C)c1 (racemic) [Compound A-3, (±)-Cis-4-chloro-N-[1-(3-methoxy-benzoyl)-2-methyl-1,2,3,4-tetrahydro-quinolin-4-yl]-N-phenyl-benzamide] | < 10 µM
2 | CC(=O)N(C)CC(=O)N(c1ccccc1)[C@@H]1C[C@H](C)N(C(=O)c2ccc(F)cc2)c2ccccc21 (racemic) [Compound A-49, (±)-Cis-2-(acetyl-methyl-amino)-N-[1-(4-fluoro-benzoyl)-2-methyl-1,2,3,4-tetrahydro-quinolin-4-yl]-N-phenyl-acetamide] | < 10 µM
3 | COc1cccc(C(=O)N2c3ccccc3[C@H](N(C(=O)C3CCCCC3)c3ccccc3)C[C@@H]2C)c1 (racemic) [Compound A-54, (±)-Cis-cyclohexanecarboxylic acid [1-(3-methoxy-benzoyl)-2-methyl-1,2,3,4-tetrahydro-quinolin-4-yl]-phenylamide] | < 10 µM
4 | C[C@H]1C[C@@H](N(C(=O)COc2ccccc2)c2ccccc2)c2ccccc2N1C(=O)c1ccc(F)cc1 (racemic) [Compound A-72, (±)-Cis-N-[1-(4-fluoro-benzoyl)-2-methyl-1,2,3,4-tetrahydro-quinolin-4-yl]-2-phenoxy-N-phenyl-acetamide] | < 10 µM
5 | CCC(=O)N(c1ccccc1)C1CC(C)N(C(=O)C2CN(Cc3ccccc3)CCO2)c2ccccc21 (racemic) [Compound A-81, (±)-Cis-N-[1-(4-benzyl-morpholine-2-carbonyl)-2-methyl-1,2,3,4-tetrahydro-quinolin-4-yl]-N-phenyl-propionamide] | < 10 µM
6 | CCC(=O)N(c1ccccc1)C1CC(C)N(C(=O)C2CN(CC)CCO2)c2ccccc21 (racemic) [Compound A-82, (±)-Cis-N-[1-(4-Ethyl-morpholine-2-carbonyl)-2-methyl-1,2,3,4-tetrahydro-quinolin-4-yl]-N-phenyl-propionamide] | < 10 µM
7 | CC(C)CC(=O)N(c1ccccc1)[C@@H]1C[C@H](C)N(C(=O)c2ccc(F)cc2)c2ccccc21 (racemic) [Compound A-132, (±)-Cis-N-[1-(4-fluoro-benzoyl)-2-methyl-1,2,3,4-tetrahydro-quinolin-4-yl]-3-methyl-N-phenyl-butyramide] | < 10 µM
8 | CCC(=O)N(c1ccccc1)[C@@H]1C[C@H](C)N(C(=O)c2ccc(-c3ccc(C(F)(F)F)cc3Cl)o2)c2ccccc21 (racemic) [Compound A-143, (±)-Cis-N-{1-[5-(2-chloro-4-trifluoromethyl-phenyl)-furan-2-carbonyl]-2-methyl-1,2,3,4-tetrahydro-quinolin-4-yl}-N-phenyl-propionamide] | < 10 µM
9 | CCC(=O)N(c1ccccc1)[C@@H]1C[C@H](C)N(C(=O)c2ccc(-c3ccc([N+](=O)[O-])cc3)o2)c2ccccc21 (racemic) [Compound A-144, (±)-Cis-N-{2-methyl-1-[5-(4-nitro-phenyl)-furan-2-carbonyl]-1,2,3,4-tetrahydro-quinolin-4-yl}-N-phenyl-propionamide] | < 10 µM
10 | C=CCC(=O)N(c1ccccc1)[C@@H]1C[C@H](C)N(C(=O)c2ccc(F)cc2)c2ccccc21 (racemic) [Compound A-147, (±)-Cis-but-3-enoic acid [1-(4-fluoro-benzoyl)-2-methyl-1,2,3,4-tetrahydro-quinolin-4-yl]-phenyl-amide] | < 10 µM

Continued, values first:

Row | Ki | Structure (SMILES)
11 | < 10 µM | CC(=O)N(c1ccccc1)[C@@H]1C[C@H](C)N(C(=O)c2sc(-c3ccccc3)nc2C)c2ccccc21 (racemic) [Compound A-16, (±)-Cis-N-[2-methyl-1-(4-methyl-2-phenyl-thiazole-5-carbonyl)-1,2,3,4-tetrahydro-quinolin-4-yl]-N-phenyl-acetamide]
12 | < 10 µM | CC(=O)N(c1ccccc1)[C@@H]1C[C@H](C)N(C(=O)c2snnc2C)c2ccccc21 (racemic) [Compound A-17, (±)-Cis-N-[2-methyl-1-(4-methyl-[1,2,3]thiadiazole-5-carbonyl)-1,2,3,4-tetrahydro-quinolin-4-yl]-N-phenyl-acetamide]
13 | < 10 µM | CC(=O)N(c1ccccc1)[C@@H]1C[C@H](C)N(C(=O)c2cc(F)c(F)c(F)c2)c2ccccc21 (racemic) [Compound A-20, (±)-Cis-N-[2-methyl-1-(3,4,5-trifluoro-benzoyl)-1,2,3,4-tetrahydro-quinolin-4-yl]-N-phenyl-acetamide]
14 | < 10 µM | CC(=O)N(c1ccccc1)[C@@H]1C[C@H](C)N(C(=O)c2c(F)cc(F)cc2F)c2ccccc21 (racemic) [Compound A-24, (±)-Cis-N-[2-methyl-1-(2,4,6-trifluoro-benzoyl)-1,2,3,4-tetrahydro-quinolin-4-yl]-N-phenyl-acetamide]
15 | < 10 µM | CCC(=O)N(c1ccccc1)[C@@H]1C[C@H](C)N(C(=O)c2cccc(Cl)c2)c2ccccc21 (racemic) [Compound A-35, (±)-Cis-N-[1-(3-chloro-benzoyl)-2-methyl-1,2,3,4-tetrahydro-quinolin-4-yl]-N-phenyl-propionamide]
16 | < 10 µM | COc1cccc(C(=O)N2c3ccccc3[C@H](N(C(=O)c3ccno3)c3ccccc3)C[C@@H]2C)c1 (racemic) [Compound A-55, (±)-Cis-isoxazole-5-carboxylic acid [1-(3-methoxy-benzoyl)-2-methyl-1,2,3,4-tetrahydro-quinolin-4-yl]-phenyl-amide]
17 | < 10 µM | CC(=O)N(c1ccccc1)[C@@H]1C[C@H](C)N(C(=O)c2sc(C)nc2C)c2ccccc21 (racemic) [Compound A-67, (±)-Cis-N-[1-(2,4-dimethyl-thiazole-5-carbonyl)-2-methyl-1,2,3,4-tetrahydro-quinolin-4-yl]-N-phenyl-acetamide]
18 | < 10 µM | C[C@H]1C[C@@H](N(C(=O)CCc2ccccc2)c2ccccc2)c2ccccc2N1C(=O)c1ccc(F)cc1 (racemic) [Compound A-73, (±)-Cis-N-[1-(4-fluoro-benzoyl)-2-methyl-1,2,3,4-tetrahydro-quinolin-4-yl]-3,N-diphenyl-propionamide]
19 | < 60 µM | COc1cccc(C(=O)N2c3ccccc3[C@@H](N(C(C)=O)c3ccccc3)C[C@@H]2C)c1 (racemic) [Compound A-124, (±)-Trans-N-[1-(3-methoxy-benzoyl)-2-methyl-1,2,3,4-tetrahydro-quinolin-4-yl]-N-phenyl-acetamide]
20 | < 10 µM | CC(=O)N(c1ccccc1)[C@@H]1C[C@H](C)N(C(=O)c2cccn2C)c2ccccc21 (racemic) [Compound A-130, (±)-Cis-N-[2-methyl-1-(1-methyl-1H-pyrrole-2-carbonyl)-1,2,3,4-tetrahydro-quinolin-4-yl]-N-phenyl-acetamide]
21 | < 10 µM | CCC(=O)N(c1ccccc1)[C@@H]1C[C@H](C)N(C(=O)c2ccnc(C)c2)c2ccccc21 (racemic) [Compound A-131, (±)-Cis-N-[2-methyl-1-(2-methyl-pyridine-4-carbonyl)-1,2,3,4-tetrahydro-quinolin-4-yl]-N-phenyl-propionamide]
22 | < 10 µM | CC(=O)N(c1ccccc1)[C@@H]1C[C@H](C)N(C(=O)c2ccccc2C)c2ccccc21 (racemic) [Compound A-153, (±)-Cis-N-[2-methyl-1-(2-methyl-benzoyl)-1,2,3,4-tetrahydro-quinolin-4-yl]-N-phenyl-acetamide]

Reference: patent publication US7504508B2, “PGD2 receptor antagonists for the treatment of inflammatory diseases” (Millennium Pharmaceuticals, Inc., priority 2002, dated 2009)
